Reference: paper PMC4256409, “Role of Phenylalanine and Valine^10 Residues in the Antimicrobial Activity and Cytotoxicity of Piscidin-1” (PLoS ONE, 2014)
Where no end group is shown, it is not given here.

What was measured:
[1] = system: Drug-resistant bacterial strains; conditions: average over the 18 drug-resistant bacterial strains of Table 3
Source text: Escherichia coli KCTC 1682, E. coli KCTC 2593, E. coli KCTC 2571, Salmonella typhimurium KCTC 1926, Pseudomonas aeruginosa KCTC 1637, P. aeruginosa KCTC 2004, P. aeruginosa KCTC 2513, Bacillus subtilis KCTC 3068, B. subtilis KCTC 1021, B. subtilis KCTC 1022, Staphylococcus epidermidis KCTC 1917, Staphylococcus aureus KCTC 1621, S. aureus KCTC 1916, and S. aureus KCTC 3881 were purchased from the Korean Collection for Type Cultures, Korea Research Institute of Bioscience & Biotechnology (Taejon, Korea). Methicillin-resistant S. aureus (MRSA) (CCARM 3089, CCARM 3090, CCARM 3108, CCARM 3114, and CCARM 3126), multidrug-resistant E. coli (MDREC) (CCARM 1229 and CCARM 1238), multidrug-resistant S. typhimurium (MDRST) (CCARM 8003, CCARM 8007, and CCARM 8009), multidrug-resistant Acinetobacter baumanii (MDRAB) (CCARM 12005, CCARM 12035, CCARM 12036, CCARM 12037), and multidrug-resistant P. aeruginosa (MDRPA) (CCARM 2002, CCARM 2003, CCARM 2095, and CCARM 2163) were obtained from the Culture Collection of Antibiotic-Resistant Microbes (CCARM) at Seoul Women’s University in Korea. The antimicrobial activities of the peptides against selected organisms, including three Gram-positive, three Gram-negative, and five antibiotic-resistant bacteria, were determined using a broth microdilution assay. Briefly, single colonies of bacteria and fungi were inoculated into Luria-Bertani (LB) medium and cultured overnight at 37°C. An aliquot of the culture was transferred to 10 mL of fresh LB and incubated for an additional 3–5 h at 37°C until it reached the mid-logarithmic phase. Two-fold serial dilutions of the peptides in 1% peptone were prepared. The serial dilutions (100 µL) were added to 100 µL of cells (2×10^6 colony-forming units (CFU)/mL) in 96-well microtiter plates and incubated at 37°C for 16 h. […] MIC values were calculated as the average of triplicate measurements from three independent assays.

S. aureus KCTC1621 = format: cell-based, Staphylococcus aureus; conditions: KCTC1621, 16 h
MDREC CCARM 1238 = format: cell-based, multidrug-resistant E. coli; conditions: broth microdilution, 37°C, 16 h, three independent experiments in triplicate, SD 14.0%
E. coli KCTC2593 = format: cell-based, Escherichia coli; conditions: KCTC2593, 16 h
MRSA CCARM 3126 = format: cell-based, Methicillin-resistant S. aureus; conditions: CCARM 3126, 16 h
MDRPA CCARM 2163 = format: cell-based, multidrug-resistant P. aeruginosa; conditions: broth microdilution, 37°C, 16 h, three independent experiments in triplicate, SD 14.0%
MDRPA CCARM 2003 = format: cell-based, multidrug-resistant P. aeruginosa; conditions: broth microdilution, 37°C, 16 h, three independent experiments in triplicate, SD 14.0%
P. aeruginosa KCTC1637 = format: cell-based, Pseudomonas aeruginosa; conditions: KCTC1637, 16 h
MRSA CCARM 3114 = format: cell-based, Methicillin-resistant S. aureus; conditions: CCARM 3114, 16 h
MRSA CCARM 3090 = format: cell-based, Methicillin-resistant S. aureus; conditions: CCARM 3090, 16 h
MDREC CCARM 1229 = format: cell-based, multidrug-resistant E. coli; conditions: broth microdilution, 37°C, 16 h, three independent experiments in triplicate, SD 14.0%
MDRAB CCARM 12035 = format: cell-based, multidrug-resistant Acinetobacter baumanii; conditions: broth microdilution, 37°C, 16 h, three independent experiments in triplicate, SD 14.0%
MDRST CCARM 8009 = format: cell-based, multidrug-resistant S. typhimurium; conditions: broth microdilution, 37°C, 16 h, three independent experiments in triplicate, SD 14.0%
MRSA CCARM 3108 = format: cell-based, Methicillin-resistant S. aureus; conditions: CCARM 3108, 16 h
B. subtilis KCTC1022 = format: cell-based, Bacillus subtilis; conditions: KCTC1022, 16 h
MDRAB CCARM 12036 = format: cell-based, multidrug-resistant Acinetobacter baumanii; conditions: broth microdilution, 37°C, 16 h, three independent experiments in triplicate, SD 14.0%
MDRST CCARM 8003 = format: cell-based, multidrug-resistant S. typhimurium; conditions: broth microdilution, 37°C, 16 h, three independent experiments in triplicate, SD 14.0%
B. subtilis KCTC3068 = format: cell-based, Bacillus subtilis; conditions: KCTC3068, 16 h
MRSA CCARM3089 = format: cell-based, Methicillin-resistant S. aureus; conditions: CCARM3089, 16 h
MDRAB CCARM 12005 = format: cell-based, multidrug-resistant Acinetobacter baumanii; conditions: broth microdilution, 37°C, 16 h, three independent experiments in triplicate, SD 14.0%
S. aureus KCTC1916 = format: cell-based, Staphylococcus aureus; conditions: KCTC1916, 16 h
MDRST CCARM 8007 = format: cell-based, multidrug-resistant S. typhimurium; conditions: broth microdilution, 37°C, 16 h, three independent experiments in triplicate, SD 14.0%
[2] = system: Standard bacterial strains; format: cell-based; conditions: average over the 14 standard bacterial strains of Table 2
S. aureus KCTC3881 = format: cell-based, Staphylococcus aureus; conditions: KCTC3881, 16 h
MDRPA CCARM 2095 = format: cell-based, multidrug-resistant P. aeruginosa; conditions: broth microdilution, 37°C, 16 h, three independent experiments in triplicate, SD 14.0%
MDRPA CCARM 2002 = format: cell-based, multidrug-resistant P. aeruginosa; conditions: broth microdilution, 37°C, 16 h, three independent experiments in triplicate, SD 14.0%
B. subtilis KCTC1021 = format: cell-based, Bacillus subtilis; conditions: KCTC1021, 16 h
S. epidermidis KCTC1917 = format: cell-based, Staphylococcus epidermidis; conditions: KCTC1917, 16 h
P. aeruginosa KCTC2513 = format: cell-based, Pseudomonas aeruginosa; conditions: KCTC2513, 16 h
E.coli KCTC2571 = format: cell-based, Escherichia coli; conditions: KCTC2571, 16 h
P. aeruginosa KCTC2004 = format: cell-based, Pseudomonas aeruginosa; conditions: KCTC2004, 16 h
MDRAB CCARM 12037 = format: cell-based, multidrug-resistant Acinetobacter baumanii; conditions: broth microdilution, 37°C, 16 h, three independent experiments in triplicate, SD 14.0%
E. coli KCTC1682 = format: cell-based, Escherichia coli; conditions: KCTC1682, 16 h
S. typhimurium KCTC1926 = format: cell-based, Salmonella typhimurium; conditions: KCTC1926, 16 h

## FFHHIKRGIVHVGKTIHRLVTG [Pis-F6K]
[1]
  Average MIC: 11 µM
S. aureus KCTC1621
  MIC: 4.0 µM
MDREC CCARM 1238
  MIC: 16 µM
E. coli KCTC2593
  MIC: 2.0 µM
MRSA CCARM 3126
  MIC: 16 µM
MDRPA CCARM 2163
  MIC: 4.0 µM
MDRPA CCARM 2003
  MIC: 4.0 µM
P. aeruginosa KCTC1637
  MIC: 8.0 µM
MRSA CCARM 3114
  MIC: 16 µM
MRSA CCARM 3090
  MIC: 16 µM
MDREC CCARM 1229
  MIC: 16 µM
MDRAB CCARM 12035
  MIC: 4.0 µM
MDRST CCARM 8009
  MIC: 16 µM
MRSA CCARM 3108
  MIC: 16 µM
B. subtilis KCTC1022
  MIC: 1.0 µM
MDRAB CCARM 12036
  MIC: 4.0 µM
MDRST CCARM 8003
  MIC: 16 µM
B. subtilis KCTC3068
  MIC: 4.0 µM
MRSA CCARM3089
  MIC: 16 µM
MDRAB CCARM 12005
  MIC: 4.0 µM
S. aureus KCTC1916
  MIC: 4.0 µM
MDRST CCARM 8007
  MIC: 16 µM
[2]
  Average MIC: 4.6 µM
S. aureus KCTC3881
  MIC: 4.0 µM
MDRPA CCARM 2095
  MIC: 4.0 µM
MDRPA CCARM 2002
  MIC: 4.0 µM
B. subtilis KCTC1021
  MIC: 4.0 µM
S. epidermidis KCTC1917
  MIC: 2.0 µM
P. aeruginosa KCTC2513
  MIC: 8.0 µM
E.coli KCTC2571
  MIC: 4.0 µM
P. aeruginosa KCTC2004
  MIC: 8.0 µM
MDRAB CCARM 12037
  MIC: 4.0 µM
E. coli KCTC1682
  MIC: 4.0 µM
S. typhimurium KCTC1926
  MIC: 8.0 µM

## FKHHIFRGIVHVGKTIHRLVTG [Pis-F2K]
[1]
  Average MIC: 9.8 µM
S. aureus KCTC1621
  MIC: 4.0 µM
MDREC CCARM 1238
  MIC: 16 µM
E. coli KCTC2593
  MIC: 2.0 µM
MRSA CCARM 3126
  MIC: 16 µM
MDRPA CCARM 2163
  MIC: 2.0 µM
MDRPA CCARM 2003
  MIC: 2.0 µM
P. aeruginosa KCTC1637
  MIC: 4.0 µM
MRSA CCARM 3114
  MIC: 16 µM
MRSA CCARM 3090
  MIC: 16 µM
MDREC CCARM 1229
  MIC: 16 µM
MDRAB CCARM 12035
  MIC: 2.0 µM
MDRST CCARM 8009
  MIC: 16 µM
MRSA CCARM 3108
  MIC: 16 µM
B. subtilis KCTC1022
  MIC: 1.0 µM
MDRAB CCARM 12036
  MIC: 2.0 µM
MDRST CCARM 8003
  MIC: 16 µM
B. subtilis KCTC3068
  MIC: 4.0 µM
MRSA CCARM3089
  MIC: 16 µM
MDRAB CCARM 12005
  MIC: 2.0 µM
S. aureus KCTC1916
  MIC: 2.0 µM
MDRST CCARM 8007
  MIC: 16 µM
[2]
  Average MIC: 3.9 µM
S. aureus KCTC3881
  MIC: 2.0 µM
MDRPA CCARM 2095
  MIC: 2.0 µM
MDRPA CCARM 2002
  MIC: 2.0 µM
B. subtilis KCTC1021
  MIC: 4.0 µM
S. epidermidis KCTC1917
  MIC: 2.0 µM
P. aeruginosa KCTC2513
  MIC: 8.0 µM
E.coli KCTC2571
  MIC: 2.0 µM
P. aeruginosa KCTC2004
  MIC: 8.0 µM
MDRAB CCARM 12037
  MIC: 2.0 µM
E. coli KCTC1682
  MIC: 4.0 µM
S. typhimurium KCTC1926
  MIC: 8.0 µM

## FKHHIFRGIKHVGKTIHRLVTG [Pis-F2K/V10K]
[1]
  Average MIC: 5.8 µM
S. aureus KCTC1621
  MIC: 2.0 µM
MDREC CCARM 1238
  MIC: 8.0 µM
E. coli KCTC2593
  MIC: 4.0 µM
MRSA CCARM 3126
  MIC: 8.0 µM
MDRPA CCARM 2163
  MIC: 2.0 µM
MDRPA CCARM 2003
  MIC: 2.0 µM
P. aeruginosa KCTC1637
  MIC: 1.0 µM
MRSA CCARM 3114
  MIC: 8.0 µM
MRSA CCARM 3090
  MIC: 8.0 µM
MDREC CCARM 1229
  MIC: 8.0 µM
MDRAB CCARM 12035
  MIC: 2.0 µM
MDRST CCARM 8009
  MIC: 8.0 µM
MRSA CCARM 3108
  MIC: 8.0 µM
B. subtilis KCTC1022
  MIC: 4.0 µM
MDRAB CCARM 12036
  MIC: 2.0 µM
MDRST CCARM 8003
  MIC: 16 µM
B. subtilis KCTC3068
  MIC: 2.0 µM
MRSA CCARM3089
  MIC: 8.0 µM
MDRAB CCARM 12005
  MIC: 2.0 µM
S. aureus KCTC1916
  MIC: 4.0 µM
MDRST CCARM 8007
  MIC: 8.0 µM
[2]
  Average MIC: 4.0 µM
S. aureus KCTC3881
  MIC: 4.0 µM
MDRPA CCARM 2095
  MIC: 2.0 µM
MDRPA CCARM 2002
  MIC: 2.0 µM
B. subtilis KCTC1021
  MIC: 8.0 µM
S. epidermidis KCTC1917
  MIC: 4.0 µM
P. aeruginosa KCTC2513
  MIC: 8.0 µM
E.coli KCTC2571
  MIC: 4.0 µM
P. aeruginosa KCTC2004
  MIC: 8.0 µM
MDRAB CCARM 12037
  MIC: 2.0 µM
E. coli KCTC1682
  MIC: 1.0 µM
S. typhimurium KCTC1926
  MIC: 2.0 µM
